Experiments:
aldose reductase = molecular target: T1, aldose reductase (Homo sapiens, UniProt P15121); test: inhibition of aldose reductase enzyme activity (procedure of S. Hayman et al. as modified by K. Sestanj et al.); assay type: biochemical; settings: for inhibition at 10 µM: 10^-5 M, partially purified aldose reductase from human placenta; for aldose reductase inhibitor potency (in words): no concentration given
T1 construct: partially purified aldose reductase enzyme obtained from human placenta; from tissue; host or cells: human placenta
Experimental: (§1) The activity of the compounds of the present invention, as agents for the control of chronic diabetic complications, is determined by their ability to successfully pass one or more of the following standard biological or pharmacological tests, viz., (1) measuring their ability to inhibit the enzyme activity of isolated aldose reductase; (2) measuring their ability to reduce or inhibit sorbitol accumulation in the sciatic nerve of acutely streptozotocinized (i.e., diabetic) rats; (3) measuring their ability to reverse already-elevated sorbitol levels in the sciatic nerve and lens of chronic streptozotocin-induced diabetic rats; (4) measuring their ability to prevent or inhibit galactitol formation in the lens of acutely galactosemic rats, and (5) measuring their ability to delay cataract formation and reduce the severity of lens opacities in chronic galactosemic rats.
The following oxindole-1-alkanoic acid final products of Examples 1-12, respectively, were tested at a concentration level of 10^-5 M for their ability to reduce or inhibit aldose reductase enzyme activity via the procedure of S. Hayman et al., as described in the Journal of Biological Chemistry, Vol. 240, p. 877 (1965) and as modified by K. Sestanj et al. in U.S. Pat. No. 3,821,383. In every case, the substrate employed was partially purified aldose reductase enzyme obtained from human placenta.

[1] = system: sorbitol levels in diabetic rats; test: inhibition of sorbitol formation in diabetic rats, oral route; assay type: in vivo, rat; settings: dose levels ranging from 0.75 mg./kg. to 20 mg./kg.
Excerpt: As previously indicated, the 3-substituted 2-oxo-indoline-1-alkanoic acid compounds of this invention are readily adapted to therapeutic use as aldose reductase inhibitors for the control of chronic diabetic complications, in view of their ability to reduce lens sorbitol levels in diabetic subjects to a statistically significant degree. […] Furthermore, the herein described compounds of this invention can be administered by either the oral or parenteral routes of administration. […]
as §1

| inhibition at 10 µM (aldose reductase) | aldose reductase inhibitor potency (in words) (aldose reductase) | SMILES | inhibition of the formation of sorbitol levels in diabetic rats (in words) [1] |
| --- | --- | --- | --- |
| 68% |  | O=C(O)CN1C(=O)C(Cc2ccc(Cl)c(Cl)c2)c2ccc(F)cc21 (stereo not drawn) [Example 3, 3-(3,4-dichlorobenzyl)-6-fluoro-2-oxo-indoline-1-acetic acid] |  |
| 72% |  | CC(c1ccc(Cl)c(Cl)c1)C1(C)C(=O)N(CC(=O)O)c2ccccc21 (stereo not drawn) [Example 11, 3-(3,4-dichloro-α-methylbenzyl)-3-methyl-2-oxo-indoline-1-acetic acid] |  |
| 94% | highly potent | CC(c1ccc(Cl)c(Cl)c1)C1C(=O)N(CC(=O)O)c2ccccc21 (stereo not drawn) [Example 7, 3-(3,4-dichloro-α-methylbenzyl)-2-oxo-indoline-1-acetic acid] |  |
| 88% | highly potent | O=C(O)CN1C(=O)C(Cc2ccc(Cl)c(Cl)c2)c2cc(Cl)ccc21 (stereo not drawn) [Example 2, 5-chloro-3-(3,4-dichlorobenzyl)-2-oxo-indoline-1-acetic acid] |  |
| 55% |  | COc1cc2c(cc1OC)N(CC(=O)O)C(=O)C2Cc1ccc(Cl)c(Cl)c1 (stereo not drawn) [Example 4, 3-(3,4-dichlorobenzyl)-5,6-dimethoxy-2-oxo-indoline-1-acetic acid] |  |
| 66% |  | O=C(O)CN1C(=O)C2(Cc3ccccc3C2)c2ccccc21 [Example 8, 1,2-dihydro-spiro-inden[2,3']indolin-2'-one-1'-acetic acid] |  |
| 92% | highly potent | O=C(O)CN1C(=O)C(Cc2ccc(Cl)c(Cl)c2)c2ccccc21 (stereo not drawn) [Example 1, 3-(3,4-dichlorobenzyl)-2-oxo-indoline-1-acetic acid] | significantly high degree |
| 71% |  | O=C(O)CN1C(=O)C2(Cc3ccc(Cl)cc3C2)c2ccccc21 (stereo not drawn) [Example 9, 5(6)-chloro-1,2-dihydro-spiro-inden[2,3']indolin-2'-one-1'-acetic acid] |  |
| 79% | highly potent | O=C(O)CN1C(=O)C(Cc2ccc(Cl)c(Cl)c2)c2ccc(O)cc21 (stereo not drawn) [Example 12, 3-(3,4-dichlorobenzyl)-6-hydroxy-2-oxo-indoline-1-acetic acid] |  |
| 81% | highly potent | COc1ccc2c(c1)N(CC(=O)O)C(=O)C2Cc1ccc(Cl)c(Cl)c1 (stereo not drawn) [Example 5, 3-(3,4-dichlorobenzyl)-6-methoxy-2-oxo-indoline-1-acetic acid] |  |
| 25% |  | CC(C(=O)O)N1C(=O)C(Cc2ccc(Cl)c(Cl)c2)c2ccccc21 (stereo not drawn) [Example 6, 3-(3,4-dichlorobenzyl)-2-oxo-indoline-1-(α-methyl)acetic acid] |  |
| 20% |  | O=C(O)CN1C(=O)C(Cc2ccc(Cl)c(Cl)c2)(Cc2ccc(Cl)c(Cl)c2)c2ccccc21 [Example 10, 3,3-di(3,4-dichlorobenzyl)-2-oxo-indoline-1-acetic acid] |  |
